This is an account of results in patent publication US4923862A, “Topical preparation containing ofloxacin” (priority 1986, dated 1990).

Where two headings read alike, the source gives them in different places.

For series [1] the following is noted: U.S. Pat. No. 4,382,892; Antimicrobial Agent & Chemotherapy, Vol. 29, 163-164 (1986); cited from earlier work.
For the next series, the system named is mice. The series can be described thus: Acute toxicity in mice. As to conditions: p.o.
A short description of series [2]: Stability of S-compound in aqueous solution. The series is classed as physicochemical. As to conditions: 0.5% (wt./vol.) aqueous solution, pH 3 to 10, 2 weeks.
A short description of series [3]: Antimicrobial activity of Ofloxacin and S-compound (general statement). As to conditions: compared with Ofloxacin.

With `CC1COc2c(N3CCN(C)CC3)c(F)cc3c(=O)c(C(=O)O)cn1c23` (racemic) [Ofloxacin, (±)-9-fluoro-3-methyl-10-(4-methyl-1-piperazinyl)-7-oxo-2,3-dihydro-7H-pyrido[1,2,3de][1,4]benzoxazine-6-carboxylic acid], the antimicrobial activities entry in series [1] was “excellent antimicrobial agent”. For the same compound, in the series with mice, the “LD50 (acute toxicity)” value was determined as 5450 mg/kg.

For `C[C@H]1COc2c(N3CCN(C)CC3)c(F)cc3c(=O)c(C(=O)O)cn1c23` [S-compound, S-(-)-9-fluoro-3-methyl-10-(4-methyl-1-piperazinyl)-7-oxo-2,3-dihydro-7H-pyrido[1,2,3de][1,4]benzoxazine-6-carboxylic acid], the antimicrobial activities result in series [1] is recorded as “potential antimicrobial activities”; in series [3], “high antimicrobial activities”. For the same compound, the “decomposition (residual amount of S-compound)” value in series [2] is “no decomposition was observed at all”.
